For one series, the system named is HCT-116 cells. The experiment in a line: MTT antiproliferative assay, HCT-116. Conditions: Homo sapiens, HCT-116, 48 h, MTT, mean ± SD, n=3; for inhibition at 100 µM: read-out: % Growth Inhibition at 100 μM HCT-116. In kind it is cell-based, human. The method, then: (§1) The antiproliferative activity of the target compounds against a normal L02 cell line and the three different human cancer cell lines viz. colorectal (HCT-116), liver (BEL-7402) and liver (HepG2) were evaluated using a standard MTT-based colorimetric assay. All cell lines were obtained from the Key Laboratory of Natural Resources and Functional Molecules of the Changbai Mountain (Yanbian University, Jilin, China) and maintained in Dulbecco’s modified Eagle’s medium (DMEM) and RPMI Media 1640 (RPMI1640), supplemented with 10% fetal bovine serum (FBS) at 37 °C in a humidified atmosphere containing 5% CO2.
(§2) Cells were plated in 96-well plates at appropriate densities to ensure exponential growth throughout the experimental period (9 × 10^3 cells per well) and then allowed to adhere for 24 h. Cells were then treated for 48 h with four serial concentrations (1, 10, 50 and 100 µM) of each compound. 5-fluorouracil (5-FU) was used as a positive control. After 48 h of incubation, 10 µL of MTT solution was added to each well to a final concentration of 2 mg/mL. Plates were then incubated for a further 4 h. After incubation, the MTT solution was removed and 150 µL of DMSO was added to each well for coloration. The plates were shaken vigorously for 10 min at room temperature to ensure complete solubilization. The optical density (OD) was read on a microplate reader (ELx800, BioTek, Highland Park, Winooski, VT, USA) at a wavelength of 492 nm and the data were subsequently analyzed. The percentage of cell growth inhibition was calculated from the following equation: Inhibitory rate (%) = [(1 − (ODtreated-ODblank)/(ODcontrol-ODblank)] × 100.(1)

A further series relates to BEL-7402 cells. Nature of the series: MTT antiproliferative assay, BEL-7402. In kind it is cell-based, human. Conditions: Homo sapiens, Bel-7402, 48 h, MTT, mean ± SD, n=3; for inhibition at 100 µM: read-out: % Growth Inhibition at 100 μM BEL-7402. The method, then: as §1, §2
On the technique in general: Formazan colour is commonly taken as a measure of viable cells.

A further series concerns HepG2 cells. The experiment in a line: MTT antiproliferative assay, HepG2. Conditions: Homo sapiens, HepG2, 48 h, MTT, mean ± SD, n=3; for inhibition at 100 µM: read-out: % Growth Inhibition at 100 μM HepG2. In kind it is cell-based, human. The method, then:
as §1, §2

The IC50 is the concentration that gives 50% inhibition. A high value points to weaker potency. A word on the inhibition: it is the change of the read-out against control, counted positive when it falls. As usually defined, the melting point is the temperature of the solid-liquid transition.

Take `O=c1[nH]cc(F)c(=O)[nH]1` [5-FU, 5-fluorouracil, reference compound]: the IC50 in the series with HCT-116 cells turned out to be 24.8 ± 2.08 µM; with BEL-7402 cells, 21.3 ± 2.43 µM; in the series on HepG2 cells, 23.4 ± 0.37 µM.
For `C[C@@]12CC[C@@H]3[C@@](CC[C@H]4[C@@]3(C)CCC[C@@]4(C)C(=O)NCCN3CCCC3)(CC1=O)C2` [Compound 1a, (4R,4aS,6aR,9S,11aR,11bS)-4,9,11b-trimethyl-8-oxo-N-(2-(pyrrolidin-1-yl)ethyl)tetradecahydro-6a,9-methanocyclohepta[a]naphthalene-4-carboxamide], the melting point lay within 136 to 137 °C. Further, the inhibition at 100 µM with HCT-116 cells stood at 65.2 ± 2.52%. In addition, in the series with BEL-7402 cells, the inhibition at 100 µM was determined as 87.1 ± 2.37%. For the same compound, the inhibition at 100 µM in the series on HepG2 cells was 66 ± 1.33%.
The matching figures for `CON(C)C(=O)[C@]1(C)CCC[C@@]2(C)[C@@H]3CC[C@@]4(C)C[C@]3(CC[C@@H]21)CC4=O` [Compound 1c, (4R,4aS,6aR,9S,11aR,11bS)-N-methoxy-N,4,9,11b-tetramethyl-8-oxotetradecahydro-6a,9-methanocyclohepta[a]naphthalene-4-carboxamide]: 144 to 145 °C, under 10%, 31.3 ± 1.22% and under 10%.
The compound `CN1CCN(C(=O)COC(=O)[C@]2(C)CCC[C@@]3(C)[C@@H]4CC[C@@]5(C)C[C@]4(CC[C@@H]32)CC5=O)CC1` [Compound 2a, 2-(4-methylpiperazin-1-yl)-2-oxoethyl(4R,4aS,6aR,9S,11aR,11bS)-4,9,11b-trimethyl-8-oxotetradecahydro-6a,9-methanocyclohepta[a]naphthalene-4-carboxylate] came in with a melting point of 112 to 113 °C. The inhibition at 100 µM in the series with HCT-116 cells stood at 62.1 ± 1.02%. Moreover, in the series on BEL-7402 cells, the inhibition at 100 µM was determined as 65 ± 2.62%. The inhibition at 100 µM in the series on HepG2 cells amounted to 40.6 ± 0.7%.
The matching figures for `C[C@@]12CC[C@@H]3[C@@](CC[C@H]4[C@@]3(C)CCC[C@@]4(C)C(=O)OCC(=O)N3CCN(c4ccccc4)CC3)(CC1=O)C2` [Compound 2c, 2-oxo-2-(4-phenylpiperazin-1-yl)ethyl(4R,4aS,6aR,9S,11aR,11bS)-4,9,11b-trimethyl-8-oxotetradecahydro-6a,9-methanocyclohepta[a]naphthalene-4-carboxylate]: 143 to 144 °C, 15.7 ± 0.61%, 40.5 ± 0.87% and under 10%.
In the case of `COC(=O)C(NC(=O)C1(C)CCCC2(C)C3CCC4(C)CC3(CCC12)CC4=O)C(C)C` [Compound 3c, Methyl((4R,4aS,6aR,9S,11aR,11bS)-4,9,11b-trimethyl-8-oxotetradecahydro-6a,9-methanocyclohepta[a]naphthalene-4-carbonyl)-L-valinate], the inhibition at 100 µM in the series with HCT-116 cells was determined as 54.7 ± 0.59%; in the series on BEL-7402 cells, 66.6 ± 1.9%; with HepG2 cells, 23.9 ± 0.85%.
Turning to `COC(=O)C(Cc1c[nH]c2ccccc12)NC(=O)C1(C)CCCC2(C)C3CCC4(C)CC3(CCC12)CC4=O` [Compound 3d, Methyl((4R,4aS,6aR,9S,11aR,11bS)-4,9,11b-trimethyl-8-oxotetradecahydro-6a,9-methanocyclohepta[a]naphthalene-4-carbonyl)-L-tryptophanate], the melting point was 165 to 166 °C. In the series on HCT-116 cells, the inhibition at 100 µM was 19.7 ± 1.11%. Also, in the series with BEL-7402 cells, the inhibition at 100 µM turned out to be 35.8 ± 2.37%. For the same compound, the inhibition at 100 µM in the series with HepG2 cells was under 10%.
As to `C[C@@]12CC[C@@H]3[C@@](CC[C@H]4[C@@]3(C)CCC[C@@]4(C)C(=O)OCC(=O)Nc3ccccc3Cl)(CC1=O)C2` [Compound 4b, 2-((2-chlorophenyl)amino)-2-oxoethyl(4R,4aS,6aR,9S,11aR,11bS)-4,9,11b-trimethyl-8-oxotetradecahydro-6a,9-methanocyclohepta[a]naphthalene-4-carboxylate], the melting point is 107 to 108 °C. In the series on HCT-116 cells, the inhibition at 100 µM was under 10%. The inhibition at 100 µM in the series on BEL-7402 cells is under 10%. Moreover, the inhibition at 100 µM in the series on HepG2 cells is under 10%.
`C[C@@]12CC[C@@H]3[C@@](CC[C@H]4[C@@]3(C)CCC[C@@]4(C)C(=O)OCC(=O)Nc3cccc(Cl)c3)(CC1=O)C2` [Compound 4c, 2-((3-chlorophenyl)amino)-2-oxoethyl(4R,4aS,6aR,9S,11aR,11bS)-4,9,11b-trimethyl-8-oxotetradecahydro-6a,9-methanocyclohepta[a]naphthalene-4-carboxylate]: the melting point is 120 to 122 °C. Further, the inhibition at 100 µM in the series with HCT-116 cells came out at 62.3 ± 3.55%. Moreover, the inhibition at 100 µM in the series on BEL-7402 cells was 35.7 ± 2.56%. Further, in the series on HepG2 cells, the inhibition at 100 µM was under 10%.
Compound `C[C@@]12CC[C@@H]3[C@@](CC[C@H]4[C@@]3(C)CCC[C@@]4(C)C(=O)OCC(=O)Nc3ccc(Cl)cc3)(CC1=O)C2` [Compound 4d, 2-((4-chlorophenyl)amino)-2-oxoethyl(4R,4aS,6aR,9S,11aR,11bS)-4,9,11b-trimethyl-8-oxotetradecahydro-6a,9-methanocyclohepta[a]naphthalene-4-carboxylate] had a melting point of 140 to 142 °C. Moreover, in the series on HCT-116 cells, the inhibition at 100 µM was found to be 56.9 ± 2.35%. The inhibition at 100 µM with BEL-7402 cells was found to be 52.9 ± 2.11%. In addition, the inhibition at 100 µM with HepG2 cells is 31.9 ± 1.31%.
Turning to `C[C@@]12CC[C@@H]3[C@@](CC[C@H]4[C@@]3(C)CCC[C@@]4(C)C(=O)OCC(=O)Nc3ccccc3F)(CC1=O)C2` [Compound 4e, 2-((2-fluorophenyl)amino)-2-oxoethyl(4R,4aS,6aR,9S,11aR,11bS)-4,9,11b-trimethyl-8-oxotetradecahydro-6a,9-methanocyclohepta[a]naphthalene-4-carboxylate], the melting point lay in the range of 168 to 169 °C. Further, in the series with HCT-116 cells, the inhibition at 100 µM came out at 27.9 ± 0.44%. Besides, in the series with BEL-7402 cells, the inhibition at 100 µM stood at 38.7 ± 1.52%. The inhibition at 100 µM with HepG2 cells was under 10%.
On the same counts, the results for `C[C@@]12CC[C@@H]3[C@@](CC[C@H]4[C@@]3(C)CCC[C@@]4(C)C(=O)OCC(=O)Nc3ccc(F)cc3)(CC1=O)C2` [Compound 4g, 2-((4-fluorophenyl)amino)-2-oxoethyl(4R,4aS,6aR,9S,11aR,11bS)-4,9,11b-trimethyl-8-oxotetradecahydro-6a,9-methanocyclohepta[a]naphthalene-4-carboxylate] are 140 to 141 °C, 65.6 ± 3.01%, 63 ± 2.13% and 39.1 ± 1.13%.
The matching figures for `COc1ccc(NC(=O)COC(=O)[C@]2(C)CCC[C@@]3(C)[C@@H]4CC[C@@]5(C)C[C@]4(CC[C@@H]32)CC5=O)cc1` [Compound 4i, 2-((4-methoxyphenyl)amino)-2-oxoethyl(4R,4aS,6aR,9S,11aR,11bS)-4,9,11b-trimethyl-8-oxotetradecahydro-6a,9-methanocyclohepta[a]naphthalene-4-carboxylate]: 86 to 88 °C, 53.1 ± 2.56%, 45.6 ± 1.47% and under 10%.
On the same counts, the results for `COc1ccc(OC)c(NC(=O)COC(=O)[C@]2(C)CCC[C@@]3(C)[C@@H]4CC[C@@]5(C)C[C@]4(CC[C@@H]32)CC5=O)c1` [Compound 4j, 2-((2,5-dimethoxyphenyl)amino)-2-oxoethyl(4R,4aS,6aR,9S,11aR,11bS)-4,9,11b-trimethyl-8-oxotetradecahydro-6a,9-methanocyclohepta[a]naphthalene-4-carboxylate] are 166 to 168 °C, under 10%, 31.3 ± 1.76% and under 10%.
With `CCOP(=O)(OCC)C(NC(=O)COC(=O)[C@]1(C)CCC[C@@]2(C)[C@@H]3CC[C@@]4(C)C[C@]3(CC[C@@H]21)CC4=O)c1ccccc1` (stereo partly drawn) [Compound 6a, 2-(((diethoxyphosphoryl)(phenyl)methyl)amino)-2-oxoethyl(4R,4aS,6aR,9S,11aR,11bS)-4,9,11b-trimethyl-8-oxotetradecahydro-6a,9-methanocyclohepta[a]naphthalene-4-carboxylate], the melting point lay within 156 to 157 °C. Moreover, in the series with HCT-116 cells, the inhibition at 100 µM turned out to be 50 ± 2.27%. Also, in the series with BEL-7402 cells, the inhibition at 100 µM amounted to 33.7 ± 0.91%. For the same compound, in the series with HepG2 cells, the inhibition at 100 µM is 28 ± 0.99%.
Compound `CCOP(=O)(OCC)C(NC(=O)COC(=O)[C@]1(C)CCC[C@@]2(C)[C@@H]3CC[C@@]4(C)C[C@]3(CC[C@@H]21)CC4=O)c1ccc(Cl)cc1` (stereo partly drawn) [Compound 6b, 2-(((4-chlorophenyl)(diethoxyphosphoryl)methyl)amino)-2-oxoethyl(4R,4aS,6aR,9S,11aR,11bS)-4,9,11b-trimethyl-8-oxotetradecahydro-6a,9-methanocyclohepta[a]naphthalene-4-carboxylate] showed a melting point of 149 to 150 °C. The inhibition at 100 µM in the series on HCT-116 cells stood at 50.3 ± 2.31%. Further, the inhibition at 100 µM in the series on BEL-7402 cells amounted to 50.4 ± 1.63%. Besides, the inhibition at 100 µM in the series with HepG2 cells was 40.2 ± 2.56%.

The record behind these values is PMC6337650 (Molecules, 2018).
